In patent US10173990B2, “URAT1 inhibitor” (Nippon Chemiphar Co., Ltd., priority 2014, dated 2019):

Biological target: URAT1 (Homo sapiens (Human), UniProt Q96S37)
Assay: Uptake of [14C] uric acid using HEK-URAT1
Assay type: cell-based
Details: for remaining activity at 10 µM: 2 min, [14C] uric acid uptake into URAT1 stably expressed HEK293 cells, 10 μM test compound, 5 μM uric acid, 2 minutes, 37° C., uptake without test compound = 100%, read-out: % control (10 μM); for IC50: inhibition of [14C] uric acid uptake into URAT1 stably expressed HEK293 cells
Description: More specifically, the test is performed by culturing URAT1 stably expressed HEK293 cells (HEK-URAT1) or HEK293 cells transfected with empty vector (HEK-mock) in a DMEM culture medium in an incubator. Subsequently, 1×10^5 cells are respectively seeded in 24-well culture plate coated with poly D-lysine and the uptake test is started after the culturing.
The cells are washed with a solution for a test warmed to 37° C. and equilibrated. After a buffer solution is removed from the cells, 0.5 mL of an uptake solution containing 5 μM [^14C] uric acid with or without a test compound is respectively added and the cells are incubated. The cell uptake is stopped by adding a Hanks buffer solution and the cells are washed. The cells are lysed with 0.1 N sodium hydroxide and the radioactivity is measured using LSC6100 (Aloka Co., Ltd. Tokyo). Each uptake into HEK-URAT1 is acquired by subtracting uptake into HEK-mock cells from the value of HEK-URAT1, converting the result to per mg protein of cells, and setting the values from the uptake without the test compound as 100%.
URAT1 stably expressed HEK293 cells (HEK-URAT1) or HEK293 cells transfected with empty vector (HEK-mock) were cultured in DMEM culture medium supplemented with 10% fetal bovine serum in an incubator under conditions of 5% carbon dioxide at 37° C. Subsequently, 1×10^5 cells were respectively seeded in 24-well culture plate coated with poly D-lysine and the uptake test was started after the culturing for 3 days.
The uptake experiment of uric acid was performed at 37° C. […] After a buffer solution was removed from the cells, 0.5 mL of an uptake solution containing 5 μM [^14C] uric acid with or without a test compound was respectively added and the cells were incubated for 2 minutes. The cell uptake was stopped by adding an ice-cold Hanks buffer solution without chloride ions and the cells were washed 3 times. The cells were lysed with 0.1 N sodium hydroxide and the radioactivity was measured using LSC6100 (Aloka Co., Ltd. Tokyo). Each uptake into HEK-URAT1 was acquired by subtracting uptake into HEK-mock cells from the value of HEK-URAT1, converting the result to per mg protein of cells, and setting the value from uptake without the test compound as 100%. The uptake in each condition was performed in triplicate and each value was represented by average±standard deviation.
The URAT1 inhibitory action was measured according to the same method as in Example 118.

Sequence of URAT1 (Q96S37 whole entry): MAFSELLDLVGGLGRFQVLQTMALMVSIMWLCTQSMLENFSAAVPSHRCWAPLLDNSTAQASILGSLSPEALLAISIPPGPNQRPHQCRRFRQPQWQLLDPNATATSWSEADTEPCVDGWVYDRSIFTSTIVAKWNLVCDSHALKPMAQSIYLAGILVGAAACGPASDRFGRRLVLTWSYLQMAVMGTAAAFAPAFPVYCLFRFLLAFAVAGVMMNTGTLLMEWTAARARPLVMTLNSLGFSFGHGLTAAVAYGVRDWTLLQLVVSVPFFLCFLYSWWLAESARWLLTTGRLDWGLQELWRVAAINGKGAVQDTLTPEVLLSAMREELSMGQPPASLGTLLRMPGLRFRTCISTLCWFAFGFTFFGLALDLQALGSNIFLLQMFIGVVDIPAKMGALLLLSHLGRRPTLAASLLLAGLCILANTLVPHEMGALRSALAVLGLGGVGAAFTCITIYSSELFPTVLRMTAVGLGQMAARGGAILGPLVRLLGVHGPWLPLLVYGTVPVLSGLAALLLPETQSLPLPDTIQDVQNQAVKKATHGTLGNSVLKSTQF

remaining activity at 10 µM | IC50 | SMILES
2.7% | 296 nM | N#Cc1ccc(-c2c(SC3(C(=O)O)CCCCC3)ccc3cnsc23)cc1 [Example 117, 1-[[7-(4-Cyanophenyl)benzo[d]isothazol-6-yl]thio]cyclohexan-1-carboxylic acid]
13.8% | 2430 nM | Cc1nsc2c(-c3ccc(C#N)cc3)c(SC3(C(=O)O)CCC3)ccc12 [Example 112, 1-[[7-(4-Cyanophenyl)-3-methylbenzo[d]isothiazol-6-yl]thio]cyclobutan-1-carb oxylic acid]
12.7% | – | CC(C)c1ccc(-c2c(SC(C)(C)C(=O)O)ccc3cnsc23)cc1 [Example 76, 2-[[7-(4-Isopropylphenyl)benzo[d]isothiazol-6-yl]thio]-2-methylpropanoic acid]
< 0.1% | 106 nM | CC(C)(Sc1ccc2cnsc2c1-c1ccc(Cl)cc1)C(=O)O [Example 82, 2-[[7-(4-Chlorophenyl)benzo[d]isothiazol-6-yl]thio]-2-methylpropanoic acid]
6.8% | – | Cc1ccc(-c2c(SC(C)(C)C(=O)O)ccc3cnsc23)cc1 [Example 74, 2-Methyl-2-[[7-(p-tolyl)benzo[d]isothiazol-6-yl]thio]propanoic acid]
12.1% | – | Cc1cc(C#N)ccc1-c1c(SC(C)(C)C(=O)O)ccc2cnsc12 [Example 86, 2-[[7-(4-Cyano-2-methylphenyl)benzo[d]isothiazol-6-yl]thio]-2-methylpropanoic acid]
2.3% | 205 nM | CC(C)(Sc1ccc2cnsc2c1-c1cccc(C#N)c1)C(=O)O [Example 84, 2-[[7-(3-Cyanophenyl)benzo[d]isothiazol-6-yl]thio]-2-methylpropanoic acid]
3.8% | – | Cc1cc(-c2c(SC(C)(C)C(=O)O)ccc3cnsc23)ccc1C#N [Example 88, 2-[[7-(4-Cyano-3-methylphenyl)benzo[d]isothiazol-6-yl]thio]-2-methylpropanoic acid]
1.3% | 25 nM | C/C(=C\C(=O)O)Sc1ccc2ccccc2c1-c1ccc(C#N)cc1 [Example 116, (E)-3-[[1-(4-cyanophenyl)naphthalen-2-yl]thio]-2-butenoic acid]
5.8% | 474 nM | CC(C)(C)C(Sc1ccc2cnsc2c1-c1ccc(C#N)cc1)C(=O)O (stereo not shown) [Example 114, 2-[[7-(4-Cyanophenyl)benzo[d]isothiazol-6-yl]thio]-3,3-dimethylbutanoic acid]
3.2% | 104 nM | CC(C)(Sc1ccc2cnsc2c1-c1ccc(C(F)(F)F)cc1)C(=O)O [Example 78, 2-Methyl-2-[[7-[4-(trifluoromethyl)phenyl]benzo[d]isothiazol-6-yl]thio]propanoic acid]
29.2% | – | CC(C)(Sc1ccc2cnsc2c1-c1ccc(OC(F)(F)F)cc1)C(=O)O [Example 80, 2-Methyl-2-[[7-[4-(trifluoromethoxy)phenyl]benzo[d]isothiazol-6-yl]thio]propanoic acid]
< 0.1% | 21 nM | CCC(CC)(Sc1ccc2cnsc2c1-c1ccc(C#N)cc1)C(=O)O [Example 113, 2-[[7-(4-Cyanophenyl)benzo[d]isothiazol-6-yl]thio]-2-ethylbutanoic acid]
3.6% | 161 nM | CC(C)(Sc1ccc2cnsc2c1-c1ccc(C#N)c(F)c1)C(=O)O [Example 90, 2-[[7-(4-Cyano-3-fluorophenyl)benzo[d]isothiazol-6-yl]thio]-2-methylpropanoic acid]

Further lines, the molecule ahead of its results:

SMILES | remaining activity at 10 µM | IC50
CC(C)(Oc1c(-c2ccc(C#N)cc2)ccc2ncsc12)C(=O)O [Example 37, 2-[[6-(4-Cyanophenyl)benzo[d]thiazol-7-yl]oxy]-2-methylpropanoic acid] | 78.6% | –
N#Cc1ccc(-c2c(O/C=C\C(=O)O)ccc3ccccc23)cc1 [Example 7, (Z)-3-[[1-(4-Cyanophenyl)naphthalen-2-yl]oxy]acrylic acid] | 29.5% | –
CC(C)(Sc1ccc2ncsc2c1-c1ccc(OC(F)(F)F)cc1)C(=O)O [Example 64, 2-Methyl-2-[[7-[4-(trifluoromethoxy)phenyl]benzo[d]thiazol-6-yl]thio]propanoic acid] | 30.1% | –
N#Cc1ccc(-c2c(O/C=C/C(=O)O)ccc3ncsc23)cc1 [Example 21, (E)-3-[[7-(4-cyanophenyl)benzo[d]thiazol-6-yl]oxy]acrylic acid] | 48.7% | –
CC(C)(Oc1ccc2ncsc2c1-c1ccc(C#N)cc1)C(=O)O [Example 19, 2-[[7-(4-Cyanophenyl)benzo[d]thiazol-6-yl]oxy]-2-methylpropanoic acid] | 15.6% | –
Cc1nc2ccc(SC(C)(C)C(=O)O)c(-c3ccc(C#N)cc3)c2s1 [Example 62, 2-[[7-(4-Cyanophenyl)-2-methylbenzo[d]thiazol-6-yl]thio]-2-methylpropanoic acid] | 49% | –
O=C(O)/C=C/Oc1ccc2ccccc2c1-c1cccnc1 [Example 10, (E)-3-[[1-(Pyridin-3-yl)naphthalen-2-yl]oxy]acrylic acid] | 27.1% | –
CC(C)C(Sc1ccc2cnsc2c1-c1ccc(C#N)cc1)C(=O)O (stereo not shown) [Example 70, 2-[[7-(4-Cyanophenyl)benzo[d]isothiazol-6-yl]thio]-3-methylbutanoic acid] | 6.4% | –
CC(C)(Oc1ccc2ccccc2c1-c1ccc(C#N)c2ccccc12)C(=O)O [Example 2, 2-[(4′-Cyano-(1,1′-binaphthalene)-2-yl]oxy]-2-methylpropanoic acid] | 45.4% | 2060 nM
N#Cc1ccc(-c2c(O/C=C/C(=O)O)ccc3ccccc23)cc1 [Example 6, (E)-3-[[1-(4-Cyanophenyl)naphthalen-2-yl]oxy]acrylic acid] | 5.4% | –
CC(C)(Sc1ccc2cnsc2c1-c1ccc([N+](=O)[O-])cc1)C(=O)O [Example 72, 2-Methyl-2-[[7-(4-nitrophenyl)benzo[d]isothiazol-6-yl]thio]propanoic acid] | < 0.1% | 12 nM
CC(C)(Sc1ccc2cnsc2c1-c1ccc(C#N)cc1)C(=O)O [Example 28, 2-[[7-(4-Cyanophenyl)benzo[d]isothiazol-6-yl]thio]-2-methylpropanoic acid] | 0.1% | –
CC(C)(Sc1ccc2ncsc2c1-c1ccc(C#N)cc1)C(=O)O [Example 24, 2-[[7-(4-Cyanophenyl)benzo[d]thiazol-6-yl]thio]-2-methylpropanoic acid] | 7.4% | 170 nM
CC(C)(Sc1c(-c2ccc(C#N)cc2)cnc2ccccc12)C(=O)O [Example 45, 2-[[3-(4-Cyanophenyl)quinolin-4-yl]thio]-2-methylpropanoic acid] | 36.5% | 1580 nM
CC(C)(Sc1ccc2nc(C(F)(F)F)sc2c1-c1ccc(C#N)cc1)C(=O)O [Example 60, 2-[[7-(4-Cyanophenyl)-2-(trifluoromethyl)benzo[d]thiazol-6-yl]thio]-2-methylpropanoic acid] | 69.2% | –
CC(C)(Sc1ccc2ccccc2c1-c1ccc(C#N)c2ccccc12)C(=O)O [Example 4, 2-[(4′-Cyano[1,1′-binaphthalene]-2-yl)thio]-2-methylpropanoic acid] | 15.1% | 790 nM
CC(C)(Oc1ccc2ncoc2c1-c1ccc(C#N)cc1)C(=O)O [Example 17, 2-[[7-(4-Cyanophenyl)benzo[d]oxazol-6-yl]oxy]-2-methylpropanoic acid] | 59.3% | –
N#Cc1ccc(-c2c(SC3(C(=O)O)CCC3)ccc3cnsc23)cc1 [Example 66, 1-[[7-(4-Cyanophenyl)benzo[d]isothiazol-6-yl]thio]cyclobutan-1-carboxylic acid] | 1.8% | 21.5 nM
CC(C)(Sc1ccc2ncccc2c1-c1ccc(C#N)cc1)C(=O)O [Example 15, 2-[[5-(4-Cyanophenyl)quinolin-6-yl]thio]-2-methylpropanoic acid] | 50.1% | 3440 nM
N#Cc1ccc(-c2c(SC3(C(=O)O)CCCC3)ccc3cnsc23)cc1 [Example 68, 1-[[7-(4-Cyanophenyl)benzo[d]isothiazol-6-yl]thio]cyclopentan-1-carboxylic acid] | < 0.1% | 26.2 nM
CC(C)(Oc1ccc2ccccc2c1-c1cccnc1)C(=O)O [Example 8, 2-Methyl-2-[[1-(pyridin-3-yl)naphthalen-2-yl]oxy]propanoic acid] | 61.3% | –
